The values below are quoted from earlier work in US5888537A, “Vinca alkaloid vesicles with enhanced efficacy and tumor targeting properties” (priority 1997, dated 1999).

For this data set the following is noted: clinical use, background.

Like-named read-outs stand apart in the source and are kept apart here.

As to `CC[C@]1(O)C[C@@H]2CN(CCc3c([nH]c4ccccc34)[C@@](C(=O)OC)(c3cc4c(cc3OC)N(C)[C@H]3[C@@](O)(C(=O)OC)[C@H](OC(C)=O)[C@]5(CC)C=CCN6CC[C@]43[C@@H]65)C2)C1` [vinblastine], the side effect entry was “Alopecia and hair loss”.
Take `CC[C@]1(O)C[C@H]2CN(CCc3c([nH]c4ccccc34)[C@@](C(=O)OC)(c3cc4c(cc3OC)N(C=O)[C@H]3[C@@](O)(C(=O)OC)[C@H](OC(C)=O)[C@]5(CC)C=CCN6CC[C@]43[C@@H]65)C2)C1` [Free Vcr, vincristine]: the side effect result runs as follows: (listed as Vincristine) “Neurotoxicity”; (listed as vincristine) “Alopecia and hair loss”.
